One assay has as its target KRAS G12C (Homo sapiens, UniProt P01116, G12C). Briefly: GDP-GTP exchange assay (KRAS_G12C exchange). In kind it is biochemical. The note with it: bodipy-GDP loaded KRAS G12C 2.5 nM, SOS1 150 nM, GppNHp; 2 hours pre-incubation, 2 hours reaction; read-out: G12C_exchange. The method in brief: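 Fluorescence exchange of bodipy-GDP for GppNHp, SOS1-driven, read at 485/520 nm; IC50 from four-parameter variable-slope fit. Both mutants used 2.5 nM final labelled protein and a 2 h compound pre-incubation. G12C reaction had 500 uM GppNHp and 150 nM SOS1 for 2 h; G12D ran 4 h.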

In assay [1] the test system is MIA PaCa-2 (KRAS G12C) cells. Briefly: Cellular pERK HTRF assay (KRAS_G12C pERK). In kind it is cell-based, human. The note with it: read-out: G12C_pERK. The gist of the method: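 Phospho-ERK1/2 HTRF readout (665 and 620 nm) in lysed MIA PaCa-2 cells, antibodies incubated overnight at room temperature. Cells seeded the day before and treated with G12C compounds for 4 h at 37 °C; IC50 fitted to percent inhibition against log inhibitor concentration.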

[2] abbreviates: Homo sapiens, MIA PaCa-2, 4 hours incubation.

The record followed here is patent US20210269434A1, “TRICYCLIC COMPOUNDS AS INHIBITORS OF KRAS” (Incyte Corporation, priority 2020, published 2021).

SMILES strings stand for the structures. Read-outs that look alike come from different tables or passages of the source.

Chain of KRAS G12C (P01116 1-188 isoform P01116-2 G12C): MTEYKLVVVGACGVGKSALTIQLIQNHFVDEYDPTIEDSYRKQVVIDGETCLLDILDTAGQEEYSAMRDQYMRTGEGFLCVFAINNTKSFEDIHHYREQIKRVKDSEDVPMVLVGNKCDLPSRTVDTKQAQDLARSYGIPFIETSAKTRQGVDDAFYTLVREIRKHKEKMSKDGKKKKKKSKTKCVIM

With `Cc1c(Cl)cc2[nH]ncc2c1-c1c(Cl)cc2c(nc(OC[C@@H]3CCCN3C)c3nnn([C@H]4CCN(C(=O)/C=C/CN(C)C)[C@H](CC#N)C4)c32)c1F` [Example 183a, 2-((2S,4S)-4-(8-chloro-7-(6-chloro-5-methyl-1H-indazol-4-yl)-6-fluoro-4-(((S)-1-methylpyrrolidin-2-yl)-methoxy)-1H-[1,2,3]triazolo-[4,5-c]quinolin-1-yl)-1-((E)-4-(dimethylamino)but-2-enoyl)piperidin-2-yl)acetonitrile], the IC50 (on KRAS G12C; in assay [1] (setting [2])) was not above 100 nM throughout.
As for `CC#CC(=O)N1CC[C@H](n2nnc3c(N4CC(N(C)C)C4)nc4c(Cl)c(-c5cccc6cccnc56)c(Cl)cc4c32)C[C@H]1CC#N` (single isomer, unassigned) [Example 277a], the IC50 (on KRAS G12C; in assay [1] (setting [2])) was not above 100 nM in each case.
Turning to `C=CC(=O)N1CC[C@H](n2cnc3c(N4CC(C)(N(C)C)C4)nc4c(F)c(-c5ccc(F)cc5)c(C)cc4c32)C[C@H]1CC#N` [Example 121, 2-((2S,4S)-1-acryloyl-4-(4-(3-(dimethylamino)-3-methylazetidin-1-yl)-6-fluoro-7-(4-fluorophenyl)-8-methyl-1H-imidazo[4,5-c]quinolin-1-yl)piperidin-2-yl)acetonitrile], the IC50 (on KRAS G12C; in assay [1] (setting [2])) was not above 100 nM each time.
As to `C=CC(=O)N1CC[C@H](n2cnc3c(N4CC(N(C)C)C4)nc4c(F)c(-c5cccc6cccc(Cl)c56)c(Cl)cc4c32)C[C@H]1CC#N` [Example 265, 2-((2S,4S)-1-acryloyl-4-(8-chloro-7-(8-chloronaphthalen-1-yl)-4-(3-(dimethylamino)azetidin-1-yl)-6-fluoro-1H-imidazo[4,5-c]quinolin-1-yl)piperidin-2-yl)acetonitrile], the IC50 (at KRAS G12C; in assay [1] (setting [2])) was not above 100 nM throughout.
With `C=CC(=O)N1CC[C@H](n2nnc3c(OC[C@@H]4CCCN4C)nc4c(Cl)c(-c5ccc(F)c6cccnc56)c(Cl)cc4c32)C[C@H]1CC#N` (single isomer, unassigned) [Example 276a], the IC50 (on KRAS G12C; in assay [1] (setting [2])) was not above 100 nM in each case.
Turning to `C=CC(=O)N1CC[C@H](n2nnc3c(OC[C@@H]4CCCN4C)nc4c(Cl)c(-c5cccc(Cl)c5C)c(Cl)cc4c32)C[C@H]1CC#N` [Example 287, 2-((2S,4S)-1-acryloyl-4-(6,8-dichloro-7-(3-chloro-2-methylphenyl)-4-(((S)-1-methylpyrrolidin-2-yl)methoxy)-1H-[1,2,3]triazolo[4,5-c]quinolin-1-yl)piperidin-2-yl)acetonitrile], the IC50 (on KRAS G12C; in assay [1] (setting [2])) was not above 100 nM in each case.
On to `C=CC(=O)N1CC[C@H](n2nnc3c(O[C@@H](C)CN(C)C)nc4c(F)c(-c5cccc(C)c5C)c(C)cc4c32)C[C@H]1CC#N` [Example 142, 2-((2S,4S)-1-acryloyl-4-(4-(((S)-1-(dimethylamino)propan-2-yl)oxy)-7-(2,3-dimethylphenyl)-6-fluoro-8-methyl-1H-[1,2,3]triazolo[4,5-c]quinolin-1-yl)piperidin-2-yl)acetonitrile], for which the IC50 (on KRAS G12C; in assay [1] (setting [2])) was not above 100 nM throughout.
On to `CC#CC(=O)N1CC[C@H](n2nnc3c(OC[C@@H]4CCCN4C)nc4c(F)c(-c5cccc(Cl)c5OC)c(CCC#N)cc4c32)C[C@H]1CC#N` [Example 204, 3-(1-((2S,4S)-1-(but-2-ynoyl)-2-(cyanomethyl)piperidin-4-yl)-7-(3-chloro-2-methoxyphenyl)-6-fluoro-4-(((S)-1-methylpyrrolidin-2-yl)methoxy)-1H-[1,2,3]triazolo[4,5-c]quinolin-8-yl)propanenitrile], for which the IC50 (on KRAS G12C; in assay [1] (setting [2])) was not above 100 nM throughout.
`C=CC(=O)N1CC[C@H](n2nnc3c(N4CC(N(C)C)C4)nc4c(F)c(-c5cccc(C)c5C)c(Cl)cc4c32)C[C@H]1CC#N` [Example 111, 2-((2S,4S)-1-acryloyl-4-(8-chloro-4-(3-(dimethylamino)azetidin-1-yl)-7-(2,3-dimethylphenyl)-6-fluoro-1H-[1,2,3]triazolo[4,5-c]quinolin-1-yl)piperidin-2-yl)acetonitrile]: the IC50 (at KRAS G12C; in assay [1] (setting [2])) was not above 100 nM each time.
In the case of `Cc1nccn1-c1nc2c(F)c(-c3ccccc3)c(Cl)cc2c2c1ncn2[C@H]1CCN(C(=O)/C=C/CF)[C@H](CC#N)C1` [Example 152, 2-((2S,4S)-4-(8-chloro-6-fluoro-4-(2-methyl-1H-imidazol-1-yl)-7-phenyl-1H-imidazo[4,5-c]quinolin-1-yl)-1-((E)-4-fluorobut-2-enoyl)piperidin-2-yl)acetonitrile], the IC50 (on KRAS G12C; in assay [1] (setting [2])) was not above 100 nM in each case.
As to `C=CC(=O)N1CC[C@H](n2cnc3c(N4CC(N(C)C)C4)nc4c(F)c(-c5cccc6ccncc56)c(Cl)cc4c32)C[C@H]1CC#N` (single isomer, unassigned) [Example 71b], the IC50 (on KRAS G12C; in assay [1] (4 hours incubation)) was not above 100 nM each time.
Turning to `C=CC(=O)N1CCC(n2c(=O)[nH]c3c(OC[C@@H]4CCCN4C)nc4c(F)c(-c5cc(O)cc6ccccc56)c(Cl)cc4c32)CC1` [Example 10, 1-(1-Acryloylpiperidin-4-yl)-8-chloro-6-fluoro-7-(3-hydroxynaphthalen-1-yl)-4-(((S)-1-methylpyrrolidin-2-yl)methoxy)-1,3-dihydro-2H-imidazo[4,5-c]quinolin-2-one], the IC50 at KRAS G12C is not above 100 nM; in assay [1] (setting [2]), 100 to 1000 nM.
Taken in the same sequence, the figures for `CC#CC(=O)N1CC[C@H](n2nnc3c(N4CC(C)(N(C)C)C4)nc4c(F)c(-c5cccc(C)c5Cl)c(C(F)(F)F)cc4c32)C[C@H]1CC#N` [Example 236, 2-((2S,4S)-1-(but-2-ynoyl)-4-(7-(2-chloro-3-methylphenyl)-4-(3-(dimethylamino)-3-methylazetidin-1-yl)-6-fluoro-8-(trifluoromethyl)-1H-[1,2,3]triazolo[4,5-c]quinolin-1-yl)piperidin-2-yl)acetonitrile] were not above 100 nM and not above 100 nM.
As to `C=CC(=O)N1CC[C@H](n2cnc3c(N4CC(N(C)C)C4)nc4c(F)c(-c5c(C)c(Cl)cc6[nH]ncc56)c(Cl)cc4c32)C[C@H]1CC#N` (single isomer, unassigned) [Example 267a], the IC50 (at KRAS G12C; in assay [1] (setting [2])) was not above 100 nM in each case.
In the case of `CC#CC(=O)N1CC[C@H](n2nnc3c(N4CC(C)(N(C)C)C4)nc4c(F)c(-c5c(C)c(Cl)cc6[nH]ncc56)c(C)cc4c32)C[C@H]1CC#N` (single isomer, unassigned) [Example 194a], the IC50 (on KRAS G12C; in assay [1] (setting [2])) was not above 100 nM throughout.
For `Cc1cc2c(nc(OC[C@@H]3CCCN3C)c3nnn([C@H]4CCN(C(=O)/C=C/C(F)F)[C@H](CC#N)C4)c32)c(F)c1-c1ccccc1C(F)(F)F` [Example 161a, 2-((2S,4S)-1-((E)-4,4-difluorobut-2-enoyl)-4-(6-fluoro-8-methyl-4-(((S)-1-methylpyrrolidin-2-yl)methoxy)-7-(2-(trifluoromethyl)phenyl)-1H-[1,2,3]triazolo[4,5-c]quinolin-1-yl)piperidin-2-yl)acetonitrile], the IC50 (on KRAS G12C; in assay [1] (setting [2])) was not above 100 nM throughout.
As to `Cc1cccc(-c2c(C)cc3c(nc(N4CC(N(C)C)C4)c4nnn([C@H]5CCN(C(=O)/C=C/C(F)F)[C@H](CC#N)C5)c43)c2F)c1C` [Example 148, 2-((2S,4S)-1-((E)-4,4-difluorobut-2-enoyl)-4-(4-(3-(dimethylamino)azetidin-1-yl)-7-(2,3-dimethylphenyl)-6-fluoro-8-methyl-1H-[1,2,3]triazolo[4,5-c]quinolin-1-yl)piperidin-2-yl)acetonitrile], the IC50 (on KRAS G12C; in assay [1] (setting [2])) was not above 100 nM in each case.
As to `C=CC(=O)N1CC[C@H](n2nnc3c(OC[C@@H]4CCCN4C)nc4c(F)c(-c5cccc(Cl)c5C)c(Cl)cc4c32)C[C@H]1CC#N` [Example 86, 2-((2S,4S)-1-acryloyl-4-(8-chloro-7-(3-chloro-2-methylphenyl)-6-fluoro-4-(((S)-1-methylpyrrolidin-2-yl)methoxy)-1H-[1,2,3]triazolo[4,5-c]quinolin-1-yl)piperidin-2-yl)acetonitrile], the IC50 (on KRAS G12C; in assay [1] (setting [2])) was not above 100 nM throughout.
With `C=CC(=O)N1CCC(n2cnc3c(OC[C@@H]4CCCN4C)nc4c(F)c(-c5cc(O)cc6ccccc56)c(Cl)cc4c32)CC1` (single isomer, unassigned) [Example 1a], the IC50 at KRAS G12C is not above 100 nM; in assay [1] (setting [2]) it was 100 to 1000 nM.
In the case of `C=CC(=O)N1CC[C@H](n2nnc3c(N4CC(N(C)C)C4)nc4c(F)c(-c5cccc(Cl)c5C)c(Cl)cc4c32)C[C@H]1CC#N` [Example 112, 2-((2S,4S)-1-acryloyl-4-(8-chloro-7-(3-chloro-2-methylphenyl)-4-(3-(dimethylamino)azetidin-1-yl)-6-fluoro-1H-[1,2,3]triazolo[4,5-c]quinolin-1-yl)piperidin-2-yl)acetonitrile], the IC50 (on KRAS G12C; in assay [1] (setting [2])) was not above 100 nM in each case.
As to `C=CC(=O)N1CC[C@H](n2cnc3c(N4CC(N(C)C)C4)nc4c(F)c(-c5cccc6c5OCCO6)c(Cl)cc4c32)C[C@H]1CC#N` [Example 69, 2-((2S,4S)-1-acryloyl-4-(8-chloro-7-(2,3-dihydrobenzo[b][1,4]dioxin-5-yl)-4-(3-(dimethylamino)azetidin-1-yl)-6-fluoro-1H-imidazo[4,5-c]quinolin-1-yl)piperidin-2-yl)acetonitrile], the IC50 (at KRAS G12C; in assay [1] (setting [2])) was not above 100 nM throughout.
